Data reported in patent publication US11965810B2, “Multiplexed on-chip impedance cytometry system and method” (UNIVERSITY OF VIRGINIA PATENT FOUNDATION, priority 2018, dated 2024).
Entries after “also recorded” stand apart in the source; their conditions may differ.

Legend:
cells (cell cycle phase) [1] = assay: Cell cycle phase assessment by impedance cytometry (ϕZ contrast) after CPT treatment; format: cell-based; conditions: FIG. 16
Description: FIG. 16 illustrates that the exemplary impedance contrast method and system can be used to detect lineage of cells based on differences of phases of cell cycle in accordance with an illustrative embodiment. That is, differences in electrophysiology between cells in G1 phase versus those with S and G2 phase can be detected using the phase contrast metric that is sensitive to interior conductivity, which can be an indicator of nucleus size (i.e., cell cycle phase/stage).
In FIG. 16, it can be observed that increasing the proportion of cells in the G2 phase increases the proportion of cells in the high impedance phase contrast (ϕZ contrast) region between 5 nM and 10 nM CPT treatment, whereas lowering the proportion of cells in G2 phase by […] CPT treatment lowers the proportion of cells in the high impedance phase contrast (ϕZ contrast) region.
(§1) FIGS. 16A, 16D, 16G, and 16J, corresponding to subpanel (a), (d), (g), and (j) are from flow cytometry, while the analogous impedance cytometry plots are in FIGS. 16B, 16C, 16E, 16F, 16H, 16I, 16K, and 16L (corresponding to subpanel (b) and (c), (e) and (f), (h) and (i), and (k) and (l)), respectively.
(§2) As per FIG. 16, indeed, CPT treatment at 5 nM and 10 nM levels increases the proportion of the sum of S and G2 phase cells, which can be detected based on the proportion of cells in the high impedance phase contrast (ϕZ contrast) region.

cells (cell cycle phase) [2] = assay: Cell cycle phase analysis by flow cytometry after CPT treatment; format: cell-based; conditions: FIG. 16
Description: Quantifying the proportion of cells in each phase of a cell cycle, including mitotic phases is widely carried out by flow cytometry using a stoichiometric fluorescent stain for DNA that reports the cells' position within the G1, S and G2 phases of the cell cycle. However, these stains are not compatible with live cell analysis.
as §1, §2

PDXs of mPanc [3] = assay: Impedance phase contrast assessment of drug sensitivity, Gemcitabine-treated PDXs of mPanc; format: cell-based, human; conditions: standard 2D cell culture plate, over all five days, FIG. 15B
Description: (§3) In this context, since alterations in subcellular electrophysiology in response to drug-induced apoptosis or autophagy occur earlier in the cell cycle than apparent with staining-based or imaging approaches, the exemplary method and system in using electrophysiology for kinetic monitoring may be used to track differences in stochastic cell sensitivity to various drugs. Additionally, the exemplary electrophysiology method and system require no sample preparation steps for staining or image contrast enhancement, thereby preserving the state of fragile apoptotic cells. […] As a non-limiting example, sensitivity of the electrophysiology of patient-derived pancreatic tumor xenografts (PDXs) to the chemotherapy drug gemcitabine may be used to illustrate the assay. Currently, treatment with folfirinox drug combination is the preferred first-line therapy for pancreatic cancer, but a significant fraction of patients cannot tolerate the overall drug cytotoxicity. […] On the other hand, for Control (untreated) versus Gemcitabine-treated PDXs of mPanc (FIG. 15B), the alterations are only modest over all five days. Indeed, the drug sensitivity determination based on tumor size takes 5 days.

PDXs of mPanc [4] = conditions: PDX mPanc; cited from earlier work
PDXs of 608 [5] = assay: Impedance phase contrast assessment of drug sensitivity, Gemcitabine-treated PDXs of 608; format: cell-based, human; conditions: standard 2D cell culture plate, right from Day 1, more clearly Day 2-5, FIG. 15A
Description: as §3

PDXs of 608 [6] = conditions: PDX 608; cited from earlier work

Row | SMILES | proportion of cells in the high impedance phase contrast (ϕZ contrast) region (cells (cell cycle phase) [1]; CPT treatment at 100 nM) | proportion of cells in the high impedance phase contrast (ϕZ contrast) region (cells (cell cycle phase) [1]; between 5 nM and 10 nM CPT treatment) | proportion of the sum of S and G2 phase cells (cells (cell cycle phase) [2]; CPT treatment at 5 nM) | proportion of the sum of S and G2 phase cells (cells (cell cycle phase) [2]; CPT treatment at 10 nM) | proportion of cells in S phase (cells (cell cycle phase) [2]; CPT treatment at 100 nM) | proportion of cells in the G2 phase (cells (cell cycle phase) [2]; CPT treatment at 100 nM) | impedance phase contrast, Control (untreated) versus Gemcitabine-treated (PDXs of mPanc [3]) | known sensitivity to gemcitabine (PDXs of mPanc [4]) | impedance phase contrast, Control (untreated) versus Gemcitabine-treated (PDXs of 608 [5]) | known sensitivity to gemcitabine (PDXs of 608 [6])
1 | CC[C@@]1(O)C(=O)OCc2c1cc1n(c2=O)Cc2cc3ccccc3nc2-1 [CPT] | lowers; also recorded: substantive decrease | increases | increases | increases | increasing | lowering; also recorded: lowers |  |  |  | 
2 | Nc1ccn([C@@H]2O[C@H](CO)[C@@H](O)C2(F)F)c(=O)n1 [Gemcitabine, gemcitabine] |  |  |  |  |  |  | only modest | relatively more resistant | statistically significant differences | sensitive
